Target: T1, STM1221 (Salmonella enterica, UniProt P0A2F2)
T1 construct: gene cobB; expressed from pET28b in E. coli BL21, nickel-purified
T1 sequence (P0A2F2 1-273): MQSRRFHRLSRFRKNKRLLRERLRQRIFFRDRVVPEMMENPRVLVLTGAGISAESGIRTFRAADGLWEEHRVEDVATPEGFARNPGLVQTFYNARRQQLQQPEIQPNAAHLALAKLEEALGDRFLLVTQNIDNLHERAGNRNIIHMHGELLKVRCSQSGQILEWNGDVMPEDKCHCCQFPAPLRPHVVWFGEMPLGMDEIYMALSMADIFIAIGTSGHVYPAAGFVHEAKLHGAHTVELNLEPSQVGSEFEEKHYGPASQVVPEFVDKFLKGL
Test: HPLC deacylation assay
Assay type: biochemical
Conditions: 1 mM NAD+, 1 mM acylated H3K27 13-mer peptide as co-substrate, 5 uM enzyme, 6 mM MgCl2, pH 8.0, 37 °C

`NC(=O)c1ccc[n+]([C@@H]2O[C@H](COP(=O)(O)OP(=O)(O)OC[C@H]3O[C@@H](n4cnc5c(N)ncnc54)[C@H](O)[C@@H]3O)[C@@H](O)[C@H]2O)c1` [NAD^+] was tested, and the HPLC deacylation assay was “The reactions without NAD^+ were used as the negative controls”.

Source: publication PMC10652111, “Zymograph profiling reveals a divergent evolution of sirtuin that may originate from class III enzymes” (The Journal of Biological Chemistry, 2023)
